In patent publication US20250382305A1 (PTC THERAPEUTICS, INC., priority 2022, published 2025) one finds IC50 data, which are given here for 23 compounds.

Assay [1] deals with Total ATXN3 (tATXN3) protein. As to the kind of experiment: Endogenous Total ATXN3 (tATXN3) Protein Assay (MSD immunoassay of cell lysates). Conditions: average IC50, total ATXN3 protein in cell lysate after 48 h with compound (Table 1). The class given is cell-based. Put shortly:
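Cells in DMEM/10% FBS were plated at 10,000 per well onto 7-point, 3.16-fold compound dilutions in duplicate for 48 h at 37° C, then lysed. Total ATXN3 in lysates was measured by MSD sandwich immunoassay: mouse anti-ATXN3 capture, rabbit anti-ATXN3 detection, SULFO-TAG anti-rabbit. Average IC50 was reported in star bins.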

Another assay has as its system ATXN3 pre-mRNA. As to the kind of experiment: RT-qPCR Assay to Quantify Exon 4 Skipping in ATXN3 pre-mRNA in Cells. The class given is cell-based. The conditions noted are these: percent exon 4 skipping in ATXN3 pre-mRNA, RT-qPCR of cell lysates; average IC50. Put shortly:
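Cells plated at 10,000/well onto a 7-point, 3.16-fold DMSO dilution series (duplicates), incubated 24 h at 37 °C, then lysed. Exon 4 skipping measured by one-step RT-qPCR (48 °C RT, 40 cycles); IC50 interpolated from dose-response fit of percent skipping.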
For orientation: Quantitative PCR measures a nucleic acid by following its amplification.

One may read the pIC50 as the IC50 on a negative log10 scale, so that one unit is a factor of ten.

Each structure is given as a SMILES string. pIC50: −log10 of the molar value.

In the case of `N[C@H]1CCC[C@@H]1c1sc2c(NCc3ccco3)cc(Cl)nc2c1Cl` [Compound 117, 2-((1S,2S)-2-aminocyclopentyl)-3,5-dichloro-N-(furan-2-ylmethyl)thieno[3,2-b]pyridin-7-amine], the pIC50 (in assay [1]; with ATXN3 pre-mRNA) was at least 7.52 throughout.

In the case of `N[C@@H]1CCCO[C@H]1c1sc2c(NCc3ccco3)cc(Cl)nc2c1Br` [Compound 118, 2-((2R,3R)-3-aminotetrahydro-2H-pyran-2-yl)-3-bromo-5-chloro-N-(furan-2-ylmethyl)thieno[3,2-b]pyridin-7-amine], the negative logarithm of the IC50 (pIC50) (in assay [1]; with ATXN3 pre-mRNA) was 6.00 to 6.52 in each case.

With `N[C@@H]1CCCO[C@H]1c1sc2c(NCc3ccco3)cc(Cl)nc2c1Cl` [Compound 119, 2-((2R,3R)-3-aminotetrahydro-2H-pyran-2-yl)-3,5-dichloro-N-(furan-2-ylmethyl)thieno[3,2-b]pyridin-7-amine], the pIC50 (in assay [1]; in the assay on ATXN3 pre-mRNA) was under 6.00 throughout.

As to `Cc1c([C@H]2CCC[C@@H]2N)sc2c(NCc3ccco3)cc(Cl)nc12` [Compound 120, 2-((1S,2S)-2-aminocyclopentyl)-5-chloro-N-(furan-2-ylmethyl)-3-methylthieno[3,2-b]pyridin-7-amine], the pIC50 (in assay [1]; in the assay with ATXN3 pre-mRNA) was 6.52 to 7.52 throughout.

On to `N[C@H]1CCC[C@]1(F)c1sc2c(NCc3ccco3)cc(Cl)nc2c1Cl` [Compound 121, 2-((1R,2S)-2-amino-1-fluorocyclopentyl)-3,5-dichloro-N-(furan-2-ylmethyl)thieno[3,2-b]pyridin-7-amine], for which the pIC50 (in assay [1]; in the assay with ATXN3 pre-mRNA) was under 6.00 in each case.

As to `N[C@H]1CCCCCC[C@@H]1c1sc2c(NCc3cccs3)cc(Cl)nc2c1I` [Compound 122, 2-((1S,2S)-2-aminocyclooctyl)-5-chloro-3-iodo-N-(thiophen-2-ylmethyl)thieno[3,2-b]pyridin-7-amine], the pIC50 (in assay [1]; in the assay with ATXN3 pre-mRNA) was under 6.00 each time.

On to `N[C@@H]1CCCCCC[C@H]1c1sc2c(NCc3cccs3)cc(Cl)nc2c1I` [Compound 123, 2-((1R,2R)-2-aminocyclooctyl)-5-chloro-3-iodo-N-(thiophen-2-ylmethyl)thieno[3,2-b]pyridin-7-amine], for which the pIC50 (in assay [1]; with ATXN3 pre-mRNA) was under 6.00 in each case.

Regarding `Cc1c([C@@]2(F)CCC[C@@H]2N)sc2c(NCc3ccco3)nc(Cl)nc12` [Compound 128, 6-((1R,2S)-2-amino-1-fluorocyclopentyl)-2-chloro-N-(furan-2-ylmethyl)-7-methylthieno[3,2-d]pyrimidin-4-amine], the negative-log IC50 (pIC50) (in assay [1]; with ATXN3 pre-mRNA) was under 6.00 throughout.

As for `N[C@H]1CCCC[C@@H]1c1sc2c(NCc3cccs3)cc(Cl)nc2c1-c1ccccc1` [Compound 129], the pIC50 is 6.00 to 6.52 in assay [1] and 6.52 to 7.52 in the assay with ATXN3 pre-mRNA.

On to `N[C@H]1CCCC[C@@H]1c1sc2c(NCc3cccs3)cc(Cl)nc2c1C1CC1` [Compound 130, 2-((1S,2S)-2-aminocyclohexyl)-5-chloro-3-cyclopropyl-N-(thiophen-2-ylmethyl)thieno[3,2-b]pyridin-7-amine], for which the pIC50 (in assay [1]; in the assay on ATXN3 pre-mRNA) was 6.52 to 7.52 throughout.

As for `N[C@H]1CCC[C@@H]1c1sc2c(NCc3cccs3)cc(Cl)nc2c1-c1ccccc1` [Compound 131, 2-((1S,2S)-2-aminocyclopentyl)-5-chloro-3-phenyl-N-(thiophen-2-ylmethyl)thieno[3,2-b]pyridin-7-amine], the pIC50 (in assay [1]; with ATXN3 pre-mRNA) was under 6.00 each time.

As for `N[C@@H]1CCCO[C@H]1c1sc2c(NCc3ccccc3)cc(Cl)nc2c1I` [Compound 132, 2-((2R,3R)-3-aminotetrahydro-2H-pyran-2-yl)-N-benzyl-5-chloro-3-iodothieno[3,2-b]pyridin-7-amine], the pIC50 in assay [1] is 6.00 to 6.52; in the assay on ATXN3 pre-mRNA, under 6.00.

For the compound `Cc1c([C@H]2OCCC[C@@H]2N)sc2c(NCc3ccco3)cc(Cl)nc12` [Compound 133, 2-((2S,3S)-3-aminotetrahydro-2H-pyran-2-yl)-5-chloro-N-(furan-2-ylmethyl)-3-methylthieno[3,2-b]pyridin-7-amine], the results for the negative logarithm of the IC50 (pIC50) (in assay [1]; in the assay on ATXN3 pre-mRNA) were 6.52 to 7.52 and at least 7.52, respectively.

Consider `Cc1c([C@@H]2OCCC[C@H]2N)sc2c(NCc3ccco3)cc(Cl)nc12` [Compound 134, ((2R,3R)-3-aminotetrahydro-2H-pyran-2-yl)-5-chloro-N-(furan-2-ylmethyl)-3-methylthieno[3,2-b]pyridin-7-amine], for which the negative-log IC50 (pIC50) (in assay [1]; in the assay with ATXN3 pre-mRNA) was under 6.00 in each case.

`N[C@@H]1CCC[C@H]1c1sc2c(NCc3cccs3)cc(Cl)nc2c1-c1ccccc1` [Compound 135, 2-((1R,2R)-2-aminocyclopentyl)-5-chloro-3-phenyl-N-(thiophen-2-ylmethyl)thieno[3,2-b]pyridin-7-amine]: the pIC50 (in assay [1]; with ATXN3 pre-mRNA) was under 6.00 in each case.

Regarding `N[C@H]1CCCO[C@@H]1c1sc2c(NCc3ccccc3)cc(Cl)nc2c1I` [Compound 136, 2-((2S,3S)-3-aminotetrahydro-2H-pyran-2-yl)-N-benzyl-5-chloro-3-iodothieno[3,2-b]pyridin-7-amine], the negative-log IC50 (pIC50) (in assay [1]; with ATXN3 pre-mRNA) was at least 7.52 throughout.

`N[C@@H]1CCCC[C@H]1c1sc2c(NCc3cccs3)cc(Cl)nc2c1C1CC1` [Compound 137, 2-((1R,2R)-2-aminocyclohexyl)-5-chloro-3-cyclopropyl-N-(thiophen-2-ylmethyl)thieno[3,2-b]pyridin-7-amine]: the pIC50 (in assay [1]; in the assay on ATXN3 pre-mRNA) was under 6.00 in each case.

For the compound `N[C@@H]1CCCC[C@H]1c1sc2c(NCc3cccs3)cc(Cl)nc2c1-c1ccccc1` [Compound 138], the pIC50 in assay [1] was 6.52 to 7.52; with ATXN3 pre-mRNA it was 6.00 to 6.52.

As for `N[C@H]1COCC[C@@H]1c1sc2c(NCc3cccs3)cc(Cl)nc2c1Br` [Compound 139, 2-((3R,4S)-3-aminotetrahydro-2H-pyran-4-yl)-3-bromo-5-chloro-N-(thiophen-2-ylmethyl)thieno[3,2-b]pyridin-7-amine], the negative logarithm of the IC50 (pIC50) is 6.52 to 7.52 in assay [1] and at least 7.52 with ATXN3 pre-mRNA.

On to `N[C@@H]1COCC[C@H]1c1sc2c(NCc3cccs3)cc(Cl)nc2c1Br` [Compound 140, 2-((3S,4R)-3-aminotetrahydro-2H-pyran-4-yl)-3-bromo-5-chloro-N-(thiophen-2-ylmethyl)thieno[3,2-b]pyridin-7-amine], for which the pIC50 (in assay [1]; with ATXN3 pre-mRNA) was 6.00 to 6.52 in each case.

Take `N[C@H]1CCCCC[C@@H]1c1sc2c(NCc3cccs3)cc(Cl)nc2c1-c1ccccc1` [Compound 141, 2-((1S,2S)-2-aminocycloheptyl)-5-chloro-3-phenyl-N-(thiophen-2-ylmethyl)thieno[3,2-b]pyridin-7-amine]: the pIC50 (in assay [1]; in the assay on ATXN3 pre-mRNA) was under 6.00 each time.

Consider `N[C@@H]1CCCCC[C@H]1c1sc2c(NCc3cccs3)cc(Cl)nc2c1-c1ccccc1` [Compound 142, 2-((1R,2R)-2-aminocycloheptyl)-5-chloro-3-phenyl-N-(thiophen-2-ylmethyl)thieno[3,2-b]pyridin-7-amine], for which the pIC50 (in assay [1]; in the assay with ATXN3 pre-mRNA) was under 6.00 throughout.

Turning to `N[C@H]1CCCO[C@@H]1c1sc2c(NCc3ccco3)nc(Cl)nc2c1Br` [Compound 143, 6-((2S,3S)-3-aminotetrahydro-2H-pyran-2-yl)-7-bromo-2-chloro-N-(furan-2-ylmethyl)thieno[3,2-d]pyrimidin-4-amine], the pIC50 (in assay [1]; with ATXN3 pre-mRNA) was at least 7.52 each time.
